Results published in EP0312346B1, “E. coli sequence specific acid protease” (GENENCOR INTERNATIONAL, INC., priority 1987, dated 1989).

System: acid protease of E.coli
Experiment: Inhibition of the protease cleaving activity (lysis at pH 5, 26 Kd CCP fragment on Western blot)
Format: biochemical
Text: E.coli expressing CCP was lysed at pH 5 in the presence of increasing concentrations of poly-L-lysine or poly-L-arginine. Any protease activity was evidenced by the appearance of the 26 Kd fragment on Western blot. […] No 26 Kd fragment appeared; DTT, PMSF and EDTA had no inhibitory effect on the lysine-lysine lysine-arginine, arginine-lysine or arginine-arginine cleaving activity of the protease.

[1] = 1 mM inhibitor, E.coli expressing CCP lysed at pH 5, no 26 Kd fragment appeared on Western blot

Substance | inhibition of the protease activity [1] | inhibition of the protease activity (no concentration stated)
poly-L-arginine | completely inhibited | inhibited
poly-L-lysine | completely inhibited | inhibited
